Measurements published in PubChem BioAssay (NCI).
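Briefly, cells in 96-well plates were exposed to five compound concentrations for 48 h, and endpoints were estimated by linear interpolation. At the TGI there is no net growth.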

What was measured:
Experiment in all cases: growth of human tumour cells (NCI), 48 h
NCI-H23 lung = test system: NCI-H23 lung
SNB-75 CNS = test system: SNB-75 CNS
SK-OV-3 ovarian = test system: SK-OV-3 ovarian
HS 578T breast = test system: HS 578T breast
IGROV1 ovarian = test system: IGROV1 ovarian
MDA-MB-435 = test system: MDA-MB-435
RXF 393 renal = test system: RXF 393 renal
MDA-N = test system: MDA-N
SW-620 colon = test system: SW-620 colon
HCT-15 colon = test system: HCT-15 colon
UO-31 renal = test system: UO-31 renal
A498 renal = test system: A498 renal
RPMI-8226 leukemia = test system: RPMI-8226 leukemia
M14 melanoma = test system: M14 melanoma
OVCAR-3 ovarian = test system: OVCAR-3 ovarian
NCI/ADR-RES ovarian = test system: NCI/ADR-RES ovarian
EKVX NSCLC = test system: EKVX NSCLC

Compound | TGI (NCI-H23 lung) [µM] | TGI (SNB-75 CNS) [µM] | TGI (SK-OV-3 ovarian) [µM] | TGI (HS 578T breast) [µM] | TGI (IGROV1 ovarian) [µM] | TGI (MDA-MB-435) [µM] | TGI (RXF 393 renal) [µM] | TGI (MDA-N) [µM] | TGI (SW-620 colon) [µM] | TGI (HCT-15 colon) [µM] | TGI (UO-31 renal) [µM] | TGI (A498 renal) [µM] | TGI (RPMI-8226 leukemia) [µM] | TGI (M14 melanoma) [µM] | TGI (OVCAR-3 ovarian) [µM] | TGI (NCI/ADR-RES ovarian) [µM] | TGI (EKVX NSCLC) [µM]
CCCCCCCCCCCCCCCCCCOC(COP(=O)(O)OCC1OC(n2cc(F)c(=O)[nH]c2=O)CC1O)COP(=O)(O)OCC1OC(n2ccc(N)nc2=O)C(O)C1O (configuration not stated) | > 100 | > 100 | > 100 | > 100 | > 100 | > 100 | 49.6 | > 100 | > 100 | > 100 | > 100 | > 100 | > 100 | 62.5 | > 100 | > 100 | > 100
C#C[C@@H](OC(=O)c1ccc([N+](=O)[O-])cc1)[C@@H]1C[C@H]2O[C@@H]([C@H](C/C=C/CC)OC(=O)c3ccc([N+](=O)[O-])cc3)C[C@H]2O1 | > 100 | > 100 | > 100 | > 100 | > 100 | > 100 | > 100 | > 100 | > 100 | > 100 | > 100 | > 100 | > 100 | > 100 | > 100 | > 100 | > 100
O=[N+]([O-])c1ccc2nc(/C=C(\O)c3ccccc3)c(NC34CC5CC(CC(C5)C3)C4)nc2c1 | > 10 | > 10 | > 10 | > 10 | > 10 | > 10 | > 10 | > 10 | > 10 | > 10 | > 10 | > 10 |  | > 10 | > 10 | > 10 | > 10
CCCCCCCCCc1cc(=O)c2c(O)cc(O)cc2o1 | 34.2 | 33.2 | 32.2 | 40.6 | 32.4 | 41.1 | 31.3 | > 100 | 78.1 | 36 | 32.6 | 35.2 | 22.3 | 34.9 | 30.4 | 35.7 | 37.5
CN(C)c1cccc2c(S(=O)(=O)NCCCNCCN)cccc12 | > 100 | 68.6 | > 100 | 76.4 | > 100 | 65.8 | 75 | 69.6 | > 100 | > 100 | > 100 | 91 |  | 33.9 | > 100 | > 100 | > 100
CCOC1Oc2ccccc2-c2nc(N)ncc21 (configuration not stated) | > 100 | > 100 | > 100 | > 100 | > 100 | 66.3 | > 100 | > 100 | > 100 | > 100 | > 100 | 81.3 | > 100 | > 100 | > 100 | > 100 | > 100
CCCCCCCCCCCCCC/C(C(=O)O)=C(\C)C(=O)O | > 100 | > 100 | > 100 | > 100 | > 100 | > 100 | > 100 | > 100 | > 100 | > 100 | > 100 | > 100 | > 100 | > 100 | > 100 | > 100 | > 100
